Tests used:
Assay type in all cases: in vivo
Echinochloa crus-galli [1] = experiment: Herbicidal activity by field foliage treatment (Test example 3); parameters: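 index 0 to 10 in 10% steps of herbicidal effect with 10 meaning complete death and 0 below 10%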; details: 1000 g effective component per hectare, day 14 after the treatment
Method in brief: (§1)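 Herbicidal effect was rated on day 14 following a foliar spray of 1000 g active ingredient per hectare, applied as water-diluted wettable powder at 1000 L/ha. Plants had been raised for 2 weeks in field soil under greenhouse conditions before spraying.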

Echinochloa oryzicola = experiment: Herbicidal activity by paddy field soil treatment (Test Example 1); parameters: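 index 0 to 10 in 10% steps of herbicidal effect with 10 meaning complete death and 0 below 10%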; details: 1000 g of effective component per hectare, evaluated on day 21 after the treatment, criteria of Table 72
Method in brief: (§2)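 Pre-emergence paddy soil test: sown pots, 3 cm flood, water-surface application of diluted wettable powder 1 day after sowing, 1000 g a.i./ha; greenhouse; effect scored on graded scale at day 21.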

Monochoria vaginalis = experiment: as above; parameters: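 index 0 to 10 in 10% steps of herbicidal effect with 10 meaning complete death and 0 below 10%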; details: 1000 g of effective component per hectare, evaluated on day 21 after the treatment, criteria of Table 72
Method in brief: as §2

Scirpus juncoides Rocxb. = experiment: as above; parameters: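 index 0 to 10 in 10% steps of herbicidal effect with 10 meaning complete death and 0 below 10%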; details: applied on water surface, 1000 g of effective component per hectare, day 21 after the treatment
Method in brief: as §2

Setaria viridis = experiment: Herbicidal activity by field foliage treatment (Test example 3); details: 1000 g effective component per hectare, day 14 after the treatment;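 note: index 0 to 10 in 10% steps of herbicidal effect with 10 meaning complete death and 0 below 10%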
Method in brief: as §1

foxtail = experiment: Herbicidal activity by field soil treatment (Test example 2); details: 1000 g effective component per hectare, day 21 after the treatment;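 note: index 0 to 10 in 10% steps of herbicidal effect with 10 meaning complete death and 0 below 10%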
Protocol: [table] Test for Determining Herbicidal Activity by Field Soil Treatment A 80 cm^2 wide plastic pot was filled with a field soil and seeds of each of Echinochloa crus-galli, foxtail, Indian millet, and A. retroflexus were sowed and then covered with soil. The wettable powder produced with reference to the Formulation example 1 was diluted water, and applied on the soil surface by using a small sprayer in an amount of 1000 liters per hectare so that the effective component is 1000 g per hectare. After that, the plants were cultivated in a greenhouse, and on day 21 after the treatment, evaluation was made by the criteria described in Table 72 for determining the herbicidal effects.

A. retroflexus [2] = experiment: Herbicidal activity by field foliage treatment (Test example 3); parameters: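 index 0 to 10 in 10% steps of herbicidal effect with 10 meaning complete death and 0 below 10%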; details: 1000 g effective component per hectare, day 14 after the treatment
Method in brief: (§3)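 Post-emergence foliar spray, 2-week-old greenhouse seedlings in field soil; wettable powder in water, 1000 g a.i./ha in 1000 L/ha. Greenhouse hold, visual herbicidal rating at 14 d.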

Indian millet [3] = experiment: as above; parameters: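 index 0 to 10 in 10% steps of herbicidal effect with 10 meaning complete death and 0 below 10%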; details: 1000 g effective component per hectare, day 14 after the treatment
Method in brief: as §3

Echinochloa crus-galli [4] = experiment: Herbicidal activity by field soil treatment (Test example 2); parameters: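 index 0 to 10 in 10% steps of herbicidal effect with 10 meaning complete death and 0 below 10%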; details: 1000 g effective component per hectare, day 21 after the treatment
Method in brief: (§4)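 Soil-surface spray after sowing; wettable powder in water, 1000 g a.i./ha at 1000 L/ha. 80 cm^2 pots, field soil, greenhouse. Visual herbicidal score on day 21.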

A. retroflexus [5] = experiment: as above; parameters: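 index 0 to 10 in 10% steps of herbicidal effect with 10 meaning complete death and 0 below 10%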; details: 1000 g effective component per hectare, day 21 after the treatment
Method in brief: as §4

Indian millet [6] = experiment: as above; parameters: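 index 0 to 10 in 10% steps of herbicidal effect with 10 meaning complete death and 0 below 10%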; details: 1000 g effective component per hectare, day 21 after the treatment
Method in brief: as §4

SMILES | herbicidal effect index, Echinochloa crus-galli (Echinochloa crus-galli [1]) | Herbicidal effects index number, Echinochloa oryzicola (Echinochloa oryzicola) | Herbicidal effects index number, Monochoria vaginalis (Monochoria vaginalis) | herbicidal effect index, S. juncoides Rocxb. (Scirpus juncoides Rocxb.) | herbicidal effect index, Setaria viridis (Setaria viridis) | herbicidal effect index, Setaria viridis (foxtail) | herbicidal effect index, Amaranthus retroflexus (A. retroflexus [2]) | herbicidal effect index, Abutilon theophrasti (Indian millet [3]) | herbicidal effect index, Echinochloa crus-galli (Echinochloa crus-galli [4]) | herbicidal effect index, Amaranthus retroflexus (A. retroflexus [5]) | herbicidal effect index, Abutilon theophrasti (Indian millet [6])
C=CCn1c(=O)c(C(=O)C2=C(O)CCCC2=O)nn(C)c1=O [I-11] | 9 | 10 | 10 | 10 | 9 | 7 | 10 | 9 | 10 | 10 | 9
C#CCn1c(=O)c(C(=O)C2=C(O)CCCC2=O)nn(C)c1=O [I-14] | 9 | 10 | 10 | 10 | 10 | 10 | 10 | 10 | 10 | 10 | 10
Cn1nc(C(=O)C2=C(O)CCCC2=O)c(=O)n(C2CC2)c1=O [I-16] | 9 | 9 | 9 | 10 | 9 | 9 | 10 | 9 | 9 | 10 | 9
COCCCn1c(=O)c(C(=O)C2=C(O)CCCC2=O)nn(C)c1=O [I-41] | 10 | 8 | 8 | 10 | 10 | 7 | 10 | 10 | 9 | 10 | 8
Cn1nc(C(=O)C2=C(O)CCCC2=O)c(=O)n(-c2ccccc2)c1=O [I-50, 6-(2-hydroxy-6-oxocyclohexa-1-enecarbonyl)-2-methyl-4-phenyl-1,2,4-triazine-3,5 (2H, 4H)-dione] | 10 | 10 | 10 | 10 | 10 | 10 | 10 | 10 | 10 | 10 | 10
Cn1nc(C(=O)C2=C(O)CCCC2=O)c(=O)n(-c2ccccc2Cl)c1=O [I-51] | 10 | 10 | 10 | 10 | 10 | 10 | 10 | 10 | 10 | 10 | 10
Cn1nc(C(=O)C2=C(O)CCCC2=O)c(=O)n(-c2cccc(Cl)c2)c1=O [I-52] | 10 | 10 | 10 | 10 | 10 | 10 | 10 | 10 | 10 | 10 | 10
Cn1nc(C(=O)C2=C(O)CCCC2=O)c(=O)n(-c2ccccc2F)c1=O [I-54] | 10 | 10 | 10 | 10 | 10 | 10 | 10 | 10 | 10 | 10 | 10
Cn1nc(C(=O)C2=C(O)CCCC2=O)c(=O)n(-c2cccc(F)c2)c1=O [I-55] | 10 | 10 | 10 | 10 | 10 | 10 | 10 | 10 | 10 | 10 | 10
Cn1nc(C(=O)C2=C(O)CCCC2=O)c(=O)n(-c2ccc(F)cc2)c1=O [I-56] | 10 | 10 | 10 | 10 | 10 | 10 | 10 | 10 | 10 | 9 | 10
Cc1ccccc1-n1c(=O)c(C(=O)C2=C(O)CCCC2=O)nn(C)c1=O [I-57] | 10 | 10 | 10 | 10 | 10 | 10 | 10 | 10 | 10 | 10 | 10

From patent US8969554B2, “6-acyl-1,2,4-triazine-3,5-dione derivative and herbicides” (Kumiai Chemical Industry Co., Ltd., priority 2010, dated 2015)
